“And” between values parts separate entries of the source, which are not always exact repeats. Equal entries are not always repeated. Where two headings read alike, the source gives them in different places.
How the values were obtained:
S. enteritidis = assay: Reduction of S. enteritidis in water treated with organic acids and SDS; format: cell-based, Salmonella enteritidis
various yeast species = assay: Effect of levulinic acids plus SDS at 21° C. on various yeast species; format: cell-based; conditions: for Yeast counts at min: 1: 1 min; for Yeast counts at min: 2: 2 min; for Yeast counts at min: 5: 5 min; for Yeast counts at min: 10: 10 min; for Yeast counts at min: 20: 20 min; for Yeast counts at min: 30: 30 min; for Yeast counts at min: 60: 60 min
L. monocytogenes = format: cell-based, Listeria monocytogenes; conditions: 21° C.
S. typhimurium DT 104 = format: cell-based, Salmonella typhimurium DT104; conditions: water, 21° C.
[1] = tested on: spores of Bacillus anthracis Sterne; format: cell-based, Bacillus anthracis Sterne (34F2)
aerobic plate count = assay: Aerobic plate counts (APC) on produce treated in a 4-L tank
yeasts and molds = assay: Yeast and mold (Y&M) counts on produce and in treatment solution, 4-L tank
S. typhimurium = S. typhimurium counts on produce (apples, celery, onions, cantaloupes) and in treatment solution, 4-L tank

## CC(=O)O [0.5% acetic acid, acetic acid]
S. enteritidis; water, 21° C., 0 min
  S. enteritidis counts: 7.1 log CFU/ml
S. enteritidis; water, 21° C., 2 min
  S. enteritidis counts: 7.0 log CFU/ml
S. enteritidis; water, 21° C., 5 min
  S. enteritidis counts: 6.8 log CFU/ml
S. enteritidis; water, 21° C., 10 min
  S. enteritidis counts: 6.7 log CFU/ml
S. enteritidis; water, 21° C., 20 min
  S. enteritidis counts: 6.6 log CFU/ml
S. enteritidis; water, 21° C., 30 min
  S. enteritidis counts: 6.5 log CFU/ml

## CCCCCCCCCCCCOS(=O)(=O)[O-].[Na+] [1.0% SDS]
Various yeast species; Candida magnoliae
  Yeast counts at min: 1: 3.5 log CFU/ml
  Yeast counts at min: 2: 3.3 log CFU/ml
  Yeast counts at min: 5: 3.2 log CFU/ml
  Yeast counts at min: 10: 3.2 log CFU/ml
  Yeast counts at min: 20: 2.7 log CFU/ml
  Yeast counts at min: 30: 3.0 log CFU/ml
  Yeast counts at min: 60: 3.1 log CFU/ml
Various yeast species; Debaryomyces hansenii
  Yeast counts at min: 1: 4.5 log CFU/ml
  Yeast counts at min: 2: 4.1 log CFU/ml
  Yeast counts at min: 5: 4.5 log CFU/ml
  Yeast counts at min: 10: 4.4 log CFU/ml
  Yeast counts at min: 20: 4.5 log CFU/ml
  Yeast counts at min: 30: 4.5 log CFU/ml
  Yeast counts at min: 60: 4.4 log CFU/ml
Various yeast species; Geotrichum candidum
  Yeast counts at min: 1: 3.8 log CFU/ml
  Yeast counts at min: 2: 3.3 log CFU/ml
  Yeast counts at min: 5: 3.5 log CFU/ml
  Yeast counts at min: 10: 3.7 log CFU/ml
  Yeast counts at min: 20: 3.5 log CFU/ml
  Yeast counts at min: 30: 3.4 log CFU/ml
  Yeast counts at min: 60: 3.3 log CFU/ml
Various yeast species; Saccharomyces cerevisiae
  Yeast counts at min: 1: 2.4 log CFU/ml
  Yeast counts at min: 2: 2.6 log CFU/ml
  Yeast counts at min: 5: 2.3 log CFU/ml
  Yeast counts at min: 10: 2.8 log CFU/ml
  Yeast counts at min: 20: 2.7 log CFU/ml
  Yeast counts at min: 30: 2.3 log CFU/ml
  Yeast counts at min: 60: 2.4 log CFU/ml
Various yeast species; Zygosaccharomyces bailii
  Yeast counts at min: 1: 4.7 log CFU/ml
  Yeast counts at min: 2: 4.6 log CFU/ml
  Yeast counts at min: 5: 4.6 log CFU/ml
  Yeast counts at min: 10: 4.6 log CFU/ml
  Yeast counts at min: 20: 4.5 log CFU/ml
  Yeast counts at min: 30: 4.5 log CFU/ml
  Yeast counts at min: 60: 4.4 log CFU/ml

## CC(=O)CCC(=O)O [2% levulinic acid]
Various yeast species; Zygosaccharomyces bailii
  Yeast counts at min: 1: 5.4 log CFU/ml
  Yeast counts at min: 2: 5.5 log CFU/ml
  Yeast counts at min: 5: 5.4 log CFU/ml
  Yeast counts at min: 10: 5.4 log CFU/ml
  Yeast counts at min: 20: 5.4 log CFU/ml
  Yeast counts at min: 30: 5.4 log CFU/ml
  Yeast counts at min: 60: 5.3 log CFU/ml

## CC(=O)CCC(=O)O [2.0% levulinic acids]
Various yeast species; Candida magnoliae
  Yeast counts at min: 1: 5.9 log CFU/ml
  Yeast counts at min: 2: 5.9 log CFU/ml
  Yeast counts at min: 5: 5.9 log CFU/ml
  Yeast counts at min: 10: 6.0 log CFU/ml
  Yeast counts at min: 20: 6.0 log CFU/ml
  Yeast counts at min: 30: 5.9 log CFU/ml
  Yeast counts at min: 60: 5.8 log CFU/ml

## CCCCCCCCCCCCOS(=O)(=O)[O-].[Na+] [SDS, sodium dodecyl sulfate]
S. enteritidis
  Salmonella reduction: did not reduce
S. enteritidis; sulfate
  S. enteritidis counts: 7.1 log CFU/ml and 7.0 log CFU/ml and 7.2 log CFU/ml
L. monocytogenes; 0 min
  L. monocytogenes counts: 6.6 ± 0.3 log CFU/ml
L. monocytogenes; 2 min
  L. monocytogenes counts: 6.4 ± 0.1 log CFU/ml
L. monocytogenes; 5 min
  L. monocytogenes counts: 6.0 ± 0.1 log CFU/ml
L. monocytogenes; 10 min
  L. monocytogenes counts: 5.0 ± 0.3 log CFU/ml
L. monocytogenes; 20 min
  L. monocytogenes counts: 3.8 ± 0.2 log CFU/ml
L. monocytogenes; 30 min
  L. monocytogenes counts: 3.3 ± 0.1 log CFU/ml
S. typhimurium DT 104; 0 min
  S. typhimurium DT 104 counts: 7.0 log CFU/ml
S. typhimurium DT 104; 1 min
  S. typhimurium DT 104 counts: 7.0 log CFU/ml
S. typhimurium DT 104; 2 min
  S. typhimurium DT 104 counts: 6.8 log CFU/ml
S. typhimurium DT 104; 5 min
  S. typhimurium DT 104 counts: 6.9 log CFU/ml
S. typhimurium DT 104; 10 min
  S. typhimurium DT 104 counts: 6.8 log CFU/ml
S. typhimurium DT 104; 20 min
  S. typhimurium DT 104 counts: 6.9 log CFU/ml
S. typhimurium DT 104; 30 min
  S. typhimurium DT 104 counts: 6.9 log CFU/ml
S. typhimurium DT 104; 60 min
  S. typhimurium DT 104 counts: 6.9 log CFU/ml
[1]; Experiment A3, 10 min
  CFU % recovery (as compared to control flask F): 65%
[1]; Experiment A3, 45 min
  CFU % recovery (as compared to control flask F): 94%
[1]; Experiment A3, 180 min
  CFU % recovery (as compared to control flask F): 95%
[1]; Experiment A4 absent heat, RT, 0 min
  CFU % recovery (as compared to control flask F): 85%
[1]; Experiment A4 absent heat, RT, 1 h
  CFU % recovery (as compared to control flask F): 90%
[1]; Experiment A4 absent heat, RT, 2 h
  CFU % recovery (as compared to control flask F): 87%
[1]; Experiment A4 absent heat, RT, 3 h
  CFU % recovery (as compared to control flask F): 98%
[1]; Experiment A4 absent heat, RT, 4 h
  CFU % recovery (as compared to control flask F): 79%
[1]; Experiment A4 with heat, 65° C., 0 min
  CFU % recovery (as compared to control flask F): 48%
[1]; Experiment A4 with heat, 65° C., 1 h
  CFU % recovery (as compared to control flask F): 53%
[1]; Experiment A4 with heat, 65° C., 2 h
  CFU % recovery (as compared to control flask F): 74%
[1]; Experiment A4 with heat, 65° C., 3 h
  CFU % recovery (as compared to control flask F): 68%
[1]; Experiment A5 with heat, 65° C., 0 min
  CFU % recovery (as compared to control flask F): 71%
[1]; Experiment A5 with heat, 65° C., 1 h
  CFU % recovery (as compared to control flask F): 69%
[1]; Experiment A5 with heat, 65° C., 2 h
  CFU % recovery (as compared to control flask F): 53%
[1]; Experiment A5 with heat, 65° C., 3 h
  CFU % recovery (as compared to control flask F): 71%
[1]; Experiment A5 with heat, 65° C., 4 h
  CFU % recovery (as compared to control flask F): 54%

## acidified sodium chlorite [50 ppm acidified sodium chlorite]
Aerobic plate count
  reduction of APC on onions: < 0.5 log CFU per onion
Yeasts and molds
  reduction of yeast and mold counts on onions: < 0.5 log CFU per onion
S. typhimurium
  reduction of S. typhimurium on onions: < 0.5 log CFU per onion

— patent publication US20120129928A1, “Chlorine-Free Liquid Microbicide Treatment” (University of Georgia Research Foundation, Inc., priority 2010, published 2012)
